Laboratory results published in US20230203025A1, “ENHANCERS OF PARTICULATE GUANYLYL CYCLASE RECEPTOR A” (Mayo Foundation for Medical Education and Research, priority 2020, published 2023).

Experiments:
[1] = target: T1, particulate guanylyl cyclase B receptor (pGC-B) (Homo sapiens, UniProt P20594); experiment: cGMP selectivity assay in HEK cells overexpressing pGC-B with CNP; format: cell-based; conditions: in the presence of CNP
T1 construct: expressed in transfected cells; host or cells: HEK
T1 sequence (P20594 23-1047): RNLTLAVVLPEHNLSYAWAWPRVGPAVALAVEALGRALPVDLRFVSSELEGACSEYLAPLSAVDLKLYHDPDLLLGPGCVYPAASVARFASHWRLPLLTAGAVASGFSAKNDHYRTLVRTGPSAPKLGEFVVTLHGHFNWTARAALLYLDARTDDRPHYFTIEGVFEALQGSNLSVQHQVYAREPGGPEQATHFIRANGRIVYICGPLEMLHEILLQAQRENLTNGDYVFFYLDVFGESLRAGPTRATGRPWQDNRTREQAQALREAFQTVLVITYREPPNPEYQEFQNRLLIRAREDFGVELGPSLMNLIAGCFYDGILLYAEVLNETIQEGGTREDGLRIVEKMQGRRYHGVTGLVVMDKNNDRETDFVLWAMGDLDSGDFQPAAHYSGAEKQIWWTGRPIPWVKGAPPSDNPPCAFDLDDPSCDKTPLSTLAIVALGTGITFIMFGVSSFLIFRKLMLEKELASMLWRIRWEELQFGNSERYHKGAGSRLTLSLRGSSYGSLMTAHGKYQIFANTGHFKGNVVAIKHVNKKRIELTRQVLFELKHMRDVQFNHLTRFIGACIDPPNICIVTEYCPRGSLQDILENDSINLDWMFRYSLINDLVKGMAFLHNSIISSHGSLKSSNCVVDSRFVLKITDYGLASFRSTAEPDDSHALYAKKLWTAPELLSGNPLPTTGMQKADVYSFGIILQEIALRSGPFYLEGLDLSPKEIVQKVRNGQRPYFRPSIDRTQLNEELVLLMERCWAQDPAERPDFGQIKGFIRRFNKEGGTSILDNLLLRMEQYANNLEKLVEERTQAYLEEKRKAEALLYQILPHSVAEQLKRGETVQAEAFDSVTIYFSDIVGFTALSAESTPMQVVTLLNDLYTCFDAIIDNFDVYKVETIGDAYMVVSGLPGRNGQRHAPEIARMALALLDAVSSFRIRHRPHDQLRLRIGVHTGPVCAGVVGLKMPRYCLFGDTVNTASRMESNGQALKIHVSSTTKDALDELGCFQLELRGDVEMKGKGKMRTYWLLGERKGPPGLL

[2] = target: T2, extracellular domain of human pGC-A (Homo sapiens, UniProt P16066); experiment: SPR binding of compound 19 to pGC-A extracellular domain (Example 5)
T2 construct: the extracellular domain of human pGC-A was used
T2 sequence (P16066 33-473 limits assumed): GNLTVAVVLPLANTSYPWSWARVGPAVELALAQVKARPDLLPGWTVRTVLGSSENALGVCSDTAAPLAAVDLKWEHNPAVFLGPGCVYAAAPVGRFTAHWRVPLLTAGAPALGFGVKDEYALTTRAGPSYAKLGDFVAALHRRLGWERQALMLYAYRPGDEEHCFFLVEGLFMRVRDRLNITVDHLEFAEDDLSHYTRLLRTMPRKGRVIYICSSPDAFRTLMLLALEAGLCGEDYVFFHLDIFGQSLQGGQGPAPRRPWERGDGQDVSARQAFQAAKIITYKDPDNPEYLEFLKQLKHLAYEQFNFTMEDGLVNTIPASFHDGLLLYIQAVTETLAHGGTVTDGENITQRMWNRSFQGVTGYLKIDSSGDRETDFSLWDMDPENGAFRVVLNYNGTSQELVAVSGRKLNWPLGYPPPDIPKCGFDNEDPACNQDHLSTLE
Procedure: Binding Studies of compound 19 to Human pGC-A Receptor: Surface plasmon resonance (SPR) binding analysis was performed by employing the highly sensitive Biosensing Instrument 4500 system for small molecule binding. For these studies the extracellular domain of human pGC-A was used together with compound 19 at increasing concentrations.

plasma stability, human = format: in vitro ADME
[3] = hepatic microsomal stability, human; format: in vitro ADME
[4] = system: primary human cardiomyocytes (HCMs); experiment: cGMP generation in primary human cardiomyocytes; format: cell-based
[5] = system: primary human cardiomyocytes (HCMs); experiment: inhibition of TGF-beta 1 induced human cardiomyocyte hypertrophy; format: cell-based; conditions: TGF-β1 5 ng/mL
Procedure: Methods (Inhibition of Human Cardiac Hypertrophy In Vitro): primary human cardiomyocytes (HCMs) were grown in growth media to 50% confluence and then were subjected to serum starvation for 24 hrs. After that, 5 ng/mL of the cytokine TGFβ-1 (R&D Systems) was added to the media for 48 hrs to induce HCM hypertrophy. […] Normal cell buffer served as a vehicle only control, where TGFP-1 alone served as the positive control. Analysis for cell surface area (μm^2) was performed using the ImageJ software at the end of the study.
Results: to further support the cGMP generation in human primary cells leads to favorable biological GC-A mediated, the anti-hypertrophic effects were assessed of Compound 19 on live HCMs stressed with TGF-β1 (5 ng/mL), using a state-of-the-art live cell imaging platform (IncuCyte System).

[6] = system: spontaneously hypertensive rats (SHRs); experiment: IV bolus in spontaneously hypertensive rats; format: in vivo, rat; conditions: SHR, single IV bolus 10 mg/kg
Procedure: Methods (IV Bolus Administration of Compound 19 in (SHRs): the cGMP generating and blood pressure lowering actions of a single IV bolus dose of Compound 19 at 10 mg/kg in spontaneously hypertensive rats (SHRs; n=2; 12 weeks old; Envigo, East Millstone, N.J.) were investigated. Studies were performed in accordance with the Animal Welfare Act and with approval of the Mayo Clinic Institutional Animal Care and Use Committee.
SHRs were anesthetized in an induction chamber with inhaled isoflurane 3%.
During this brief state of anesthesia, SHRs were administered Inactin (100 mg/kg; IP to induce anesthesia and then maintained with by additional Inactin 100 mg/kg (IP), as required. Once adequate anesthesia was achieved, the anesthetized SHRs were subjected to vessel and bladder cannulation for Compound 19 administration, blood sampling and urine collection. A polyethylene (PE)-50 tube catheter was placed into the jugular vein for Compound 19 intravenous (IV) administration. The carotid artery was cannulated with a PE-50 tube catheter for blood pressure monitoring and blood sampling/collection. The bladder was accessed and cannulated with a PE-50 tube catheter for passive urine collection. After completion of the above procedural set up, a 45-minute equilibration period was performed that included a 30-minute baseline urine collection and a single baseline blood sample was performed.

## CN(C)CCN1CCCC(C(=O)Nc2nc3c(F)cc(F)cc3s2)C1 (stereo not shown) [Compound 19]
[1]
  cGMP activity in cells expressing pGC-B: devoid of cGMP activity
[2]; Response (RU) increasing with concentration
  binding to human pGC-A: clearly validated
[2]; compound 2.5 to 20 μM with 0.25 μM pGC-A receptor extracellular domain
  Kd: 4.1 µM
Plasma stability, human
  Plasma Stability (% remaining at 1 h): 107.4%
[3]
  Hepatic Microsomal Stability (% remaining at 1 h): 98.2%
[4]; HCMs, 1, 5 or 10 μM compound in the presence of ANP (10^−10 M)
  cGMP generation: clear increase in cGMP generation
[4]; HCMs, compound alone at similar dose, no ANP
  cGMP generation: did not generate cGMP generation
[5]; Compound 19 (1, 5, 10 μM) with ANP 10^−8 M
  inhibition of HCM hypertrophy: significant inhibition
[5]; Compound 19 (1, 5, 10 μM) with ANP 10^−10 M
  inhibition of HCM hypertrophy: significant inhibition
[6]
  diuresis (urine volume): increase in diuresis
[6]; 0-60 min
  mean arterial pressure: decrease in mean arterial pressure
[6]; compared to baseline
  plasma cGMP: increase
  urinary cGMP: increase
